Assay results: PMC7270175, “Micelle-stabilized Olfactory Receptors for a Bioelectronic Nose Detecting Butter Flavors in Real Fermented Alcoholic Beverages” (Scientific Reports, 2020)

Molecular target: T1, ODR-10 (Caenorhabditis elegans, UniProt Q18807)
T1 construct: ODR-10 in pET-DEST42 (V5 and Ni-column purification tag), E. coli BL21(DE3), SDS-solubilized, reconstituted in DDM/Cymal 6 detergent micelles; also pcDNA3 ODR-10 in HEK-293 cells
T1 sequence (Q18807 1-339): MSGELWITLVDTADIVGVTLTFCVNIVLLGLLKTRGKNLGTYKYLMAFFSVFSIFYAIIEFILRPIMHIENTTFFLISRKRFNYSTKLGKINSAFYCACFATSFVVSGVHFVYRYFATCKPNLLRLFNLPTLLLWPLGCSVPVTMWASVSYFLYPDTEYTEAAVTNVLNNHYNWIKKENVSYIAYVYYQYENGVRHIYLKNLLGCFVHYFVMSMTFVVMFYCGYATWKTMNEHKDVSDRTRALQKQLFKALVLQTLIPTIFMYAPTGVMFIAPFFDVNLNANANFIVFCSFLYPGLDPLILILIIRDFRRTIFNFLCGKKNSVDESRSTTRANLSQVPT
Assay: carbon nanotube FET, Hill fit of conductance response
Type: binding
Settings: read-out: K

CC(=O)C(C)=O [Diacetyl, 2,3-butanedione]
Kd: ~1.7 pM
